# Measured values: patent publication US9365604B2, “Oligomer-nucleoside phosphate conjugates” (NEKTAR THERAPEUTICS, priority 2007, dated 2016)
# Where two headings read alike, the source gives them in different places.
# What was measured:
# MIA PaCa-2 = experiment: In vitro cytotoxicity assay (CellTiter-Glo); format: cell-based; details: for IC50: 72 h exposure, CellTiter-Glo
# Protocol: (§1) The objective of these studies were to determine the IC50 values for PEG-floxuridine conjugates against floxuridine-resistant cell lines based on data from previous Xenograft studies. The cells were exposed for 72 h, and cell viability assessed by using the CellTiter-Glo assay.
# (§2) The objective of these studies was to determine the IC50 values for PEG-gemcitabine conjugates against gemcitabine-resistant cell lines based on data from previous Xenograft studies. The cells were exposed for 72 h, and cell viability assessed by using the CellTiter-Glo assay.
# HT-29 = experiment: In vitro cytotoxicity assay (CellTiter-Glo); format: cell-based; details: for IC50: 72 h exposure, CellTiter-Glo
# Protocol: as §1, §2
# HCT-116 = experiment: In vitro cytotoxicity assay (CellTiter-Glo); format: cell-based; details: for IC50: 72 h exposure, CellTiter-Glo
# Protocol: as §1, §2
# DU145 = experiment: Sulforhodamine B (SRB) growth inhibition assay; format: cell-based, Human; details: SRB assay
# Protocol: (§3) The aim was to determine the GI50 values for PEG-floxuridine conjugates against a panel of cell lines, and based on previous data from Xenograft studies. […] The test articles were solubilized in dimethylsulfoxide and were tested at four different molar (M) concentrations; 10^−4, 10^−5, 10^−6, M. GI50 (the concentration needed to reduce the growth of treated cells to half that of untreated control cells) was calculated for each condition ([(Ti−Tz)/(C-Tz)]×100=50, where Ti, Tz, and C refer to absorbance values obtained from each tested concentration, time zero, and control treatment, respectively).
# as §3, with “The objective” for “The aim”, “the IC50” for “the GI50”, “for PEG-gemcitabine” for “for PEG-floxuridine”, “in dimethyl sulfoxide” for “in dimethylsulfoxide”, “10^−6, 10^−7” for “10^−6,”, “condition ([(Ti−Tz)/(C−Tz)]×100=50,” for “condition ([(Ti−Tz)/(C-Tz)]×100=50,”
# CAKI-1 = experiment: In vitro cytotoxicity assay (CellTiter-Glo); format: cell-based; details: for IC50: 72 h exposure, CellTiter-Glo
# PANC-1 = experiment: In vitro cytotoxicity assay (CellTiter-Glo); format: cell-based; details: 72 h exposure
# Protocol: as §2
# The PEG-gemcitabine derivatives and gemcitabine inhibited the growth of most of the cell lines with IC50 values from the nM to low μM range, except for PANC-1 cells. Like the previous study, some of the IC50 values should be interpreted carefully because the concentration range tested was not centered around the IC50. […] The PANC-1 pancreatic cell line, in contrast to BxPC-3, Capan-1, or MIA-PaCa-2, has been shown previously to be resistant in vitro to gemcitabine, and 4′-thio-FAC, a deoxycytidine sulfur- and fluoro-substituted analog (Zajchowski et al., (2005). Int J Cancer. 114(6), 1002-9).
# [1] = 48 h drug exposure, read-out: GI50 (molar concentration) in Cell Line DU145
# [2] = cells exposed for 24 h, read-out: GI50 values (μM) DU145
Structure (SMILES),Ratio vs gem (IC50) MIA PaCa-2 (MIA PaCa-2),IC50 (MIA PaCa-2),Ratio vs gem (IC50) HT-29 (HT-29),IC50 (HT-29),Ratio vs gem (IC50) HCT-116 (HCT-116),IC50 (HCT-116),GI50 (DU145; [1]),GI50 (DU145; [2]),Ratio vs gem (IC50) CAKI-1 (CAKI-1),IC50 (CAKI-1),IC50 (PANC-1)
"COCCOCCOCCOP(=O)(O)OC[C@H]1O[C@@H](n2ccc(N)nc2=O)C(F)(F)[C@@H]1O.Cl [Gemcitabine Mono (mPEG3), 5′-gemcitabine methoxy tri(ethylene glycol) phosphate hydrochloride]",3,76 nM,7,755 nM,2,2.9 nM,< 0.1 µM,< 0.1 µM,3,21 nM,> 1e+06 nM
"COCCOCCOCCOCCOCCOCCOCCOP(=O)(O)OC[C@H]1O[C@@H](n2ccc(N)nc2=O)C(F)(F)[C@@H]1O.Cl [Gemcitabine Mono (mPEG7), 5′-gemcitabine methoxy hepta(ethylene glycol) phosphate hydrochloride]",3,84 nM,56,6250 nM,2,4 nM,< 0.1 µM,< 0.1 µM,6,50 nM,> 1e+06 nM
